Data from US12084472B2 (Ardelyx, Inc., priority 2015, dated 2024).

Molecular target: T1, human TGR5 (Homo sapiens, UniProt Q8TDU6)
T1 construct: expressed in transfected cells; host or cells: HEK293
T1 sequence (Q8TDU6 1-330): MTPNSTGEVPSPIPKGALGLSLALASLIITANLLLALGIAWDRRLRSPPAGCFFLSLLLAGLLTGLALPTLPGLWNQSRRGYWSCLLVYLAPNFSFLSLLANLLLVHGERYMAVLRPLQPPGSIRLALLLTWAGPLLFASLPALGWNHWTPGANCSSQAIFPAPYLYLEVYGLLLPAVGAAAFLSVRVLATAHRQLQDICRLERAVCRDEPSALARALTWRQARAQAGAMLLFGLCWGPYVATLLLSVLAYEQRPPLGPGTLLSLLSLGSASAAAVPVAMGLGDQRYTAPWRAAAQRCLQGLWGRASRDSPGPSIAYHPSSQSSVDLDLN
Assay: Cell-based TGR5 assay (cAMP generation, HTRF)
Settings: HEK293 cells stably transfected with human TGR5; cAMP by HTRF; 30 minutes at 37° C.; read-out: pEC50 Human TGR5 (converted)
Procedure, shortened: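 Read-out was HTRF detection of cAMP, converted to concentration via a standard curve and fitted (3-parameter logistic) for pEC50 and maximal response. Agonist stimulation used HEK293 cells stably transfected with human TGR5, incubated 30 min at 37° C in IBMX-containing buffer at 0.05 nM to 10 μM compound.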

| EC50 | SMILES |
| --- | --- |
| 126 to 1000 nM | Cc1ccc(C(C)CCCC(=O)N(CCC(=O)N(C)C)C[C@H](O)[C@@H](O)[C@H](O)[C@H](O)CO)cc1CNC1(c2cnccc2-c2ccccc2OC2CC2)CC1 (stereo partly drawn) [Compound I-366, 5-{3-[({1-[4-(2-cyclopropoxyphenyl)pyridin-3-yl]cyclopropyl}amino)methyl]-4-methylphenyl}-N-[2-(dimethylcarbamoyl)ethyl]-N-[(2S,3R,4R,5R)-2,3,4,5,6-pentahydroxyhexyl]hexanamide] |
| < 100 nM | CNC(=O)CN(C[C@H](O)[C@@H](O)[C@H](O)[C@H](O)CO)C(=O)CCCC(C)c1ccc(C)c(CNC2(c3cnccc3-c3ccccc3OC3CC3)CC2)c1 (stereo partly drawn) [Compound I-360, 5-{3-[({1-[4-(2-cyclopropoxyphenyl)pyridin-3-yl]cyclopropyl}amino)methyl]-4-methylphenyl}-N-[(methylcarbamoyl)methyl]-N-[(2S,3R,4R,5R)-2,3,4,5,6-pentahydroxyhexyl]hexanamide] |
| < 100 nM | CCc1ccc(C(C)CCCC(=O)NC[C@H](O)[C@@H](O)[C@H](O)[C@H](O)CO)cc1CNC1(c2cnccc2-c2ccccc2OC2CC2)CC1 (stereo partly drawn) [Compound I-349, 5-{3-[({1-[4-(2-cyclopropoxyphenyl)pyridin-3-yl]cyclopropyl}amino)methyl]-4-ethylphenyl}-N-[(2S,3R,4R,5R)-2,3,4,5,6-pentahydroxyhexyl]hexanamide] |
| < 100 nM | O=C(CCC1CN(S(=O)(=O)c2ccc(Cl)c(COC3(c4cnccc4-c4ccccc4OC4CC4)CC3)c2)C1)NC[C@H](O)[C@@H](O)[C@H](O)[C@H](O)CO [Compound I-448, 3-{1-[4-chloro-3-({1-[4-(2-cyclopropoxyphenyl)pyridin-3-yl]cyclopropoxy}methyl)benzenesulfonyl]azetidin-3-yl}-N-[(2S,3R,4R,5R)-2,3,4,5,6-pentahydroxyhexyl]propanamide] |
| < 100 nM | CC(C)N(CCCCNC(=O)NC[C@H](O)[C@@H](O)[C@H](O)[C@H](O)CO)S(=O)(=O)c1ccc(Cl)c(CNC2(c3cnccc3-c3ccccc3OC3CC3)CC2)c1 [Compound I-751, 4-chloro-3-(((1-(4-(2-cyclopropoxyphenyl)pyridin-3-yl)cyclopropyl)amino)methyl)-N-isopropyl-N-(4-(3-((2S,3R,4R,5R)-2,3,4,5,6-pentahydroxyhexyl)ureido)butyl) benzenesulfonamide] |
| < 100 nM | CC(C)N(CCCCNC(=O)NC[C@H](O)[C@@H](O)[C@H](O)[C@H](O)CO)S(=O)(=O)c1ccc(Cl)c(COC2(c3cnccc3-c3ccccc3OC3CC3)CC2)c1 [Compound I-391, 3-[(2S,3R,4R,5R)-2,3,4,5,6-pentahydroxyhexyl]-1-[4-[N-(propan-2-yl)[4-chloro-3-([1-[4-(2-cyclopropoxyphenyl)pyridin-3-yl]cyclopropoxy]methyl)benzene]sulfonamido]butyl]urea] |
| < 100 nM | CC(C)N(CCCCNC(=O)N[C@@H](CO)[C@@H](O)[C@H](O)[C@H](O)CO)S(=O)(=O)c1ccc(Cl)c(CNC2(c3cnccc3-c3ccccc3OC3CC3)CC2)c1 [Compound I-744, 4-chloro-3-(((1-(4-(2-cyclopropoxyphenyl)pyridin-3-yl)cyclopropyl)amino)methyl)-N-isopropyl-N-(4-(3-((2S,3R,4S,5R)-1,3,4,5,6-pentahydroxyhexan-2-yl)ureido)butyl)benzenesulfonamide] |
| 126 to 1000 nM | O=C(CCCSc1ccc(Cl)c(COC2(c3cnccc3-c3ccccc3OC3CC3)CC2)c1)N(CCS(=O)(=O)N1CCOCC1)C[C@H](O)[C@@H](O)[C@H](O)[C@H](O)CO [Compound I-686, 4-{[4-chloro-3-({1-[4-(2-cyclopropoxyphenyl)pyridin-3-yl]cyclopropoxy}methyl)phenyl]sulfanyl}-N-[2-(morpholine-4-sulfonyl)ethyl]-N-[(2S,3R,4R,5R)-2,3,4,5,6-pentahydroxyhexyl]butanamide] |

The next lines start with the compound.

| SMILES | EC50 |
| --- | --- |
| COCCCN(CCCCc1cc(Cl)c(COC2(c3cnccc3-c3ccccc3OC3CC3)CC2)cc1Cl)C(=O)[C@@H](O)[C@@H](O)[C@H](O)[C@@H](O)CO [Compound I-212, (2S,3S,4R,5S)-N-{4-[2,5-dichloro-4-({1-[4-(2-cyclopropoxyphenyl)pyridin-3-yl]cyclopropoxy}methyl)phenyl]butyl}-2,3,4,5,6-pentahydroxy-N-(3-methoxypropyl)hexanamide] | < 100 nM |
| Cc1cc(COC2(c3cnccc3-c3ccccc3OC3CC3)CC2)c(C)cc1CCCCC(=O)N(C)C[C@H](O)[C@@H](O)[C@H](O)[C@H](O)CO [Compound I-230, 5-[4-({1-[4-(2-cyclopropoxyphenyl)pyridin-3-yl]cyclopropoxy}methyl)-2,5-dimethylphenyl]-N-methyl-N-[(2S,3R,4R,5R)-2,3,4,5,6-pentahydroxyhexyl]pentanamide] | < 100 nM |
| Fc1ccccc1-c1ccncc1C1(NCc2cc(Cl)ccc2Cl)CC1 [Compound I-17, N-[(2,5-dichlorophenyl)methyl]-1-[4-(2-fluorophenyl)pyridin-3-yl]cyclopropan-1-amine] | 1260 to 10000 nM |
| CC(C)N(C[C@H](O)[C@@H](O)[C@H](O)[C@H](O)CO)C(=O)CCCCc1cc(Cl)c(COC2(c3cnccc3-c3ccccc3OC3CC3)CC2)cc1Cl [Compound I-128, 5-[2,5-dichloro-4-({1-[4-(2-cyclopropoxyphenyl)pyridin-3-yl]cyclopropoxy}methyl)phenyl]-N-[(2S,3R,4R,5R)-2,3,4,5,6-pentahydroxyhexyl]-N-(propan-2-yl)pentanamide] | < 100 nM |
| Cc1ccc(C(C)CCCN(C)C(=O)[C@@H](O)[C@@H](O)[C@H](O)[C@@H](O)CO)cc1CNC1(c2cnccc2-c2ccccc2OC2CC2)CC1 (stereo partly drawn) [Compound I-301, (2S,3S,4R,5S)-N-(4-{3-[({1-[4-(2-cyclopropoxyphenyl)pyridin-3-yl]cyclopropyl}amino)methyl]-4-methylphenyl}pentyl)-2,3,4,5,6-pentahydroxy-N-methylhexanamide] | < 100 nM |
| CCCC(=O)N(CCCCc1cc(Cl)c(COC2(c3cnccc3-c3ccccc3OC3CC3)CC2)cc1Cl)C[C@H](O)[C@@H](O)[C@H](O)[C@H](O)CO [Compound I-74, N-{4-[2,5-dichloro-4-({1-[4-(2-cyclopropoxyphenyl)pyridin-3-yl]cyclopropoxy}methyl)phenyl]butyl}-N-[(2S,3R,4R,5R)-2,3,4,5,6-pentahydroxyhexyl]butanamide] | 126 to 1000 nM |
| FC(F)(F)c1ccc(Cl)cc1CNC1(c2cnccc2-c2ccccc2OC2CC2)CC1 [Compound I-30, N-{[5-chloro-2-(trifluoromethyl)phenyl]methyl}-1-[4-(2-cyclopropoxyphenyl)pyridin-3-yl]cyclopropan-1-amine] | 126 to 1000 nM |
| Cc1cc(COC2(c3cnccc3-c3ccccc3OC3CC3)CC2)c(C)cc1CCCCNC(=O)NC[C@H](O)[C@@H](O)[C@H](O)[C@H](O)CO (stereo in doubt) [Compound I-150, 1-{4-[4-({1-[4-(2-cyclopropoxyphenyl)pyridin-3-yl]cyclopropoxy}methyl)-2,5-dimethylphenyl]butyl}-3-[(2S,3R,4R,5R)-2,3,4,5,6-pentahydroxyhexyl]urea] | < 100 nM |
| NC(=O)CN(C[C@H](O)[C@@H](O)[C@H](O)[C@H](O)CO)C(=O)CCCCc1cc(Cl)c(COC2(c3cnccc3-c3ccccc3OC3CC3)CC2)cc1Cl (stereo in doubt) [Compound I-208, N-(carbamoylmethyl)-5-[2,5-dichloro-4-({1-[4-(2-cyclopropoxyphenyl)pyridin-3-yl]cyclopropoxy}methyl)phenyl]-N-[(2S,3R,4R,5R)-2,3,4,5,6-pentahydroxyhexyl]pentanamide] | < 100 nM |
| Cc1cc(COC2(c3cnccc3-c3ccccc3OC3CC3)CC2)c(Cl)cc1CCCCNC(=O)N[C@@H](CCCNC(=N)N)C(=O)O [Compound I-113, (2S)-5-carbamimidamido-2-[({4-[5-chloro-4-({1-[4-(2-cyclopropoxyphenyl)pyridin-3-yl]cyclopropoxy}methyl)-2-methylphenyl]butyl}carbamoyl)amino]pentanoic acid] | < 100 nM |
| O=C(CCCCc1cc(Cl)c(COC2(c3cnccc3-c3ccccc3OC3CC3)CC2)cc1Cl)N(CC(O)CO)C[C@H](O)[C@@H](O)[C@H](O)[C@H](O)CO (stereo partly drawn) [Compound I-122, 5-(2,5-dichloro-4-((1-(4-(2-cyclopropoxyphenyl)pyridin-3-yl)cyclopropoxy)methyl)phenyl)-N-(2,3-dihydoxypropyl)-N-((2S,3R,4R,5R)-2,3,4,5,6-pentahydroxyhexyl) pentanamide] | < 100 nM |
| CC(CCCNC(=O)NC[C@H](O)[C@@H](O)[C@H](O)[C@H](O)CO)c1ccc(Cl)c(CNC2(c3cnccc3-c3ccccc3OC3CC3)CC2)c1 (stereo partly drawn) [Compound I-265, 1-(4-{4-chloro-3-[({1-[4-(2-cyclopropoxyphenyl)pyridin-3-yl]cyclopropyl}amino)methyl]phenyl}pentyl)-3-[(2S,3R,4R,5R)-2,3,4,5,6-pentahydroxyhexyl]urea] | < 100 nM |
| CS(=O)(=O)c1ccc(Cl)cc1CNC1(c2cnccc2-c2ccccc2OC2CC2)CC1 [Compound I-43, N-[(5-chloro-2-methanesulfonylphenyl)methyl]-1-[4-(2-cyclopropoxyphenyl)pyridin-3-yl]cyclopropan-1-amine] | 126 to 1000 nM |
| Cc1cc(COC2(c3cnccc3-c3ccccc3OC3CC3)CC2)c(Cl)cc1CCCCN(C)C(=O)[C@@H](O)[C@@H](O)[C@H](O)[C@@H](O)CO [Compound I-132, (2S,3S,4R,5S)-N-{4-[5-chloro-4-({1-[4-(2-cyclopropoxyphenyl)pyridin-3-yl]cyclopropoxy}methyl)-2-methylphenyl]butyl}-2,3,4,5,6-pentahydroxy-N-methylhexanamide] | < 100 nM |
